Data from patent publication US20240182526A1, “COMPOSITIONS AND METHODS FOR MODULTING INFLAMMATORY AND DEGENERATIVE DISORDER” (University of Southern California, priority 2021, published 2024).
Entries after “also recorded” stand apart in the source; their conditions may differ. Where no end group is shown, it is not given here. [ ]: non-standard residue; d: D form. pY = N[C@@H](Cc1ccc(OP(=O)(O)O)cc1)C(=O)O

Key:
[1] = test system: gp130 receptor signaling; details: previous studies; cited from earlier work
[2] = test system: rat medial meniscectomy and cartilage surface injury models; details: cited from earlier work
[3] = test system: adult and pig articular cartilage; details: cited from earlier work
[4] = test system: pNF-κB p65; test: Western blot of pNF-κB p65 in pig articular chondrocytes; assay type: cell-based; details: for protein levels of pNF-κB p65 after OSM stimulation: pig articular chondrocytes, 24 hours
Description: (§1) For standard western blot, treated and non-treated cells were lysed in RIPA Lysis and Extraction Buffer (Pierce, Rockford, IL) containing protease inhibitors (Pierce) followed by sonication with a 15-second pulse at a power output of 2 using the VirSonic 100 (SP Industries Company, Warminster, PA). Protein concentrations were determined by BCA protein assay (Pierce). Proteins were resolved with SDS-PAGE utilizing 4-15% Mini-PROTEAN TGX Precast Gels and transferred to Trans-Blot Turbo Transfer Packs with a 0.2-μm pore-size nitrocellulose membrane. The SDS-PAGE running buffer, 4-15% Mini-PROTEAN TGX Precast Gels, Trans-Blot Turbo Transfer Packs with a 0.2-μm pore-size nitrocellulose membrane was purchased from Biorad (Hercules, CA). Nitrocellulose membranes were blocked in 5% nonfat milk in 0.05% (v/v) Tween 20 (PBST) (Corning, Manassas, VA). Membranes were then incubated with primary antibodies p-gp130 Y814 (Evseenko lab, AbClonal), p-AKT (cat #4060, Cell Signaling), p-ERK 1/2 (cat #9106, Cell Signaling), p-Y416-SRC (cat #1246F, Novus Biologicals), p-gp130 (cat #1453R, Bioss USA) and p-NFκBp65 (cat #8242, Cell Signaling), and/or YAP1 (cat #4912, Cell Signaling). Histone H3 (cat #9515, Cell Signaling) was used as loading control. After washing in PBS containing 0.05% (v/v) Tween 20 (PBST), membranes were incubated with rabbit (cat #31460, Thermo Scientific) or mouse IgG-HRP (cat #31430, Thermo Scientific) secondary antibodies. After washing, membranes were developed with the Clarity Western ECL Blotting Substrate (Hercules, CA). Quantification of blots was performed using ImageJ 1.44 followed by Prism9 for analysis.

[5] = test system: ADAMTS4, ADAMTS5 and MMP13 transcription; test: qPCR of matrix-degrading genes in OSM-stimulated pig articular chondrocytes; assay type: cell-based; details: 48 hours
Description: (§2) Quantitative Real-Time PCR. Power SYBR Green (Applied Biosystems) RT-PCR amplification and detection was performed using an Applied Biosystems Step One Plus Real-Time PCR machine. The comparative Ct method for relative quantification (2-ΔΔCt) was used to quantitate gene expression. TBP (TATA-box binding protein) was used for gene normalization and expressed relative to a calibrator (sample in each set with lowest expression). Q-PCR for was conducted using the following primers: human: TBP forward, 5′ GATGGACGTTCGGTTTAGG 3′ (SEQ ID NO:28); TBP reverse, 5′ AGCAGCACAGTACGAGCAA 3′ (SEQ ID NO:29), MMP13 forward, 5′ […] 3′(SEQ ID NO:30); MMP13 reverse, 5′ GAACCCCGCATCTTGGCTT 3′ (SEQ ID NO:31), ADAMTS5 forward 5′ […] 3′ (SEQ ID NO:32); ADAMTS5 reverse, 5′ […] 3′ (SEQ ID NO:33), ADAMTS4 forward 5′ […] 3′ (SEQ ID NO:34); ADAMTS4 reverse, 5′ […] 3′ (SEQ ID NO:35), Collagen II forward, 5′ […] 3′ (SEQ ID NO:36); Collagen II reverse 5′ […] 3′ (SEQ ID NO:37); Aggrecan forward, 5′ AGGCAGCGTGATCCTTACC 3′ (SEQ ID NO:38); Aggrecan reverse, 5′ […] 3′ (SEQ ID NO:39). Cells were treated with 10 ng/mL OSM and/or with 5 μM SRC (SU6656) inhibitor, 10 ng/mL OSM and/or 50 ng/mL WT/F814 plasmids; 10 ng/mL OSM and/or 100 or 300 ug/mL of peptide QQpYF (Evseenko lab, Thermo Scientific); 10 uM R805 and/or 10 ng/mL OSM.

[6] = target: T1, pSRC (Homo sapiens, UniProt P12931); test: Western blot of pSRC in human synovium stimulated with OSM; assay type: cell-based; details: with or without OSM, 24 hours
T1 construct: from tissue; host or cells: human synovium
Description: as §1, with “After washing in PBS containing 0.05% (v/v) Tween 20 (PBST), membranes were incubated with rabbit (cat #31460, Thermo Scientific) or mouse IgG-HRP (cat #31430, Thermo Scientific) secondary antibodies. After washing, membranes were developed with the Clarity Western ECL Blotting Substrate (Hercules, CA).” left out

[7] = test system: pNF-kB p65; test: Western blot of pNF-kB p65 in human synovium stimulated with OSM; assay type: cell-based; details: with or without OSM, 24 hours
Description: as §1, with “After washing in PBS containing 0.05% (v/v) Tween 20 (PBST), membranes were incubated with rabbit (cat #31460, Thermo Scientific) or mouse IgG-HRP (cat #31430, Thermo Scientific) secondary antibodies. After washing, membranes were developed with the Clarity Western ECL Blotting Substrate (Hercules, CA).” left out

[8] = test system: pSRC; test: Western blot of pSRC in pig articular chondrocytes; assay type: cell-based; details: for protein levels of pSRC after OSM stimulation: pig articular chondrocytes, 4 and 24 hours
Description: as §1
(§3) The studies delineate that gp130 Y814 regulates SRC downstream signaling; since SRC is known to associate with gp130, it was hypothesized that gp130 and SRC are capable of physically interacting on Y814 and hindering this interaction will prevent SRC from signaling. In order to impede this interaction, experiments were performed using an innovative peptide library screen with short and overlapping peptides mimicking the motif of gp130 around Y814 that were individually tested for pSRC downregulation; these peptides ranged from 4-15 amino acids. The peptides contained a protein sequence stretch of consecutive amino acids surrounding gp130 Y814 residue. To test their efficacy, pig articular chondrocytes were stimulated with or without OSM in presence or absence of the peptides followed by co-immunoprecipitation to determine interaction and western blot detecting pSRC activity. […] Due to sequence specificity, the peptide is capable of discriminating among other gp130 regions serving as a competitive inhibitor.

[9] = test system: ADAMTS4/5, MMP13, COL2 and ACAN transcription; test: qPCR of catabolic and anabolic genes in human adult OA articular chondrocytes; assay type: cell-based; details: 48 hours
Description: as §2

[10] = test system: cleaved ACAN and COL2 neoepitopes; test: Neoepitope assay on pig articular cartilage explants stimulated with OSM; assay type: cell-based; details: 72 hours, normalized to wet weight
Description: Neoepitope analysis. WT and F814 mouse articular cartilage explants were treated with or without OSM (10 ng/mL). Pig articular cartilage explants were stimulated with or without OSM (10 ng/mL) and treated with or without peptide QQpYF (100 μg/mL or 300 μg/mL). For R805 treatment, pig articular cartilage explants were stimulated with or without OSM (10 ng/mL) and treated with or without R805 (0.01, 0.1, 1 or 10 μM). The explants were then digested for 2 hr at 37° C. with 0.01 units chondroitinase ABC (Sigma Aldrich, St. Louis, MO). Samples were then dialyzed with ultrapure water for 24 hr at 4° C., freeze dried, dissolved in RIPA Lysis and Extraction Buffer (Pierce, IL) containing protease inhibitors (Pierce) followed by sonication. Proteins were separated and analyzed by Western blot using primary antibodies against aggrecan (cat #NB100-74350, Novus Biologicals,) and collagen II neoepitopes (cat #50-1035, Ibex). Wet weight of explants was used as loading control.

[11] = test system: gp130 and pSRC; test: Co-immunoprecipitation of complex formation between gp130 and pSRC in pig articular chondrocytes; assay type: cell-based; details: pig articular chondrocytes with or without OSM, 4 and 24 hours
Description: IP Western, SDS-PAGE and Western blot analysis. For transfections of gp130 wild type (WT) (InVivoGen) and gp130 mutant plasmids (Thermo Scientific), cells were plated 24 h prior to transfection to produce monolayers that were 60% confluent and these were transfected by using Turbo DNAfectin 3000 (cat #G3000, Lambda Biotech) according to the manufacturer's protocol. 72h after transfection, cells were maintained in DMEM (10% FBS, 1% PSA) and were either left untreated or were stimulated with IL-6 (10 ng/mL) and/or OSM (10 ng/mL) for 24 h before cell harvest and protein extraction. For immunoprecipitation assays, cell lysates were incubated with Protein G Agarose (cat #20398, Pierce) and anti-Flag antibody (cat #2368, Cell Signaling) at 4° C. overnight. The immune complexes were sedimented, washed and separated by SDS-PAGE (see below) and further analyzed by Western blot using p-SRC (pY416-SRC) (cat #1246F, Novus Biologicals) or NEMO (cat #18474-1-AP, Proteintech) antibodies and normalized to gp130 (cat #bs-1459R, Bioss) or total SRC (cat #2123, Cell Signaling). For R805 treatment, the immune complexes were sedimented, washed and separated by SDS-PAGE and further analyzed by Western blot using OSMR (cat #ab85575, Abcam), LIFR (Santa cat #515337, Cruz Biotechnology) or p-SRC (pY416-SRC) (Novus Biologicals, cat #1246F). Histone H3 (cat #9715, Cell Signaling), gp130 (cat #bs-1459R, Bioss), total SRC (cat #2123, Cell Signaling) or Flag antibody (cat #14739, Cell Signaling) were used as loading controls.
as §3

[12] = pig articular chondrocytes treated with peptides for 24 hours, no OSM

For `Brc1ccc(Nc2nc(-c3ccccc3)cs2)cc1` [RCGD 423], the “STAT3 signaling and downstream MYC” value [1] is listed as “highly activate STAT3 signaling and its downstream target, proto-oncogene MYC”, the “activation of MAPK/ERK and NF-κB pathways” value [1] is listed as “prevents activation of MAPK/ERK and NF-κB pathways” and the cartilage regeneration [2] is listed as “promotes cartilage regeneration”. The articular cartilage degeneration [3] was “protects adult and pig articular cartilage from degeneration”.
For `CN(C)S(=O)(=O)c1ccc2c(c1)/C(=C/c1cc3c([nH]1)CCCC3)C(=O)N2` [SU6656, reference compound], the “protein levels of pNF-κB p65 after OSM stimulation” value [4] was “can be blocked by SRC inhibition” and the “OSM-induced transcription of matrix-degrading genes (ADAMTS4, ADAMTS5, MMP13), qPCR” value [5] was “can be blocked by SRC inhibition”.
With PRQQ[pY]FKQ [Peptide 5] the “protein levels of pSRC” value [6] was “inhibits SRC and NF-kB protein expression”, the “protein levels of pNF-kB p65” value [7] was “inhibits SRC and NF-kB protein expression” and the “endogenous protein levels of NF-kB p65” value [4, 12] was “inhibits endogenous SRC and NF-kB protein expression”. For the same compound, the “endogenous protein levels of phosphorylated c-SRC (pSRC)” value [8, 12] was “inhibits endogenous SRC and NF-kB protein expression”.
For “QQ(PY)F (QQYF) [Peptide P2A, 4 amino acid SRC-targeting interfering peptide, Gln-Gln-phosphoTyr-Phe]”, the “protein levels of pNF-κB p65 after OSM stimulation” value [4] was “decreasing SRC and NF-κB activation; also recorded: significant effect on decreasing SRC and NF-κB signaling”, the “protein levels of pSRC after OSM stimulation” value [8] was “decreasing SRC and NF-κB activation; also recorded: significant effect on decreasing SRC and NF-κB signaling; also recorded: inhibits SRC activity” and the “protein levels of pSRC after OSM stimulation” value ([8]; listed as QQ[pY]F) was “decreasing pSRC activation”. The “protein levels of pSRC after OSM stimulation” value ([8]; listed as QQpYF) was “inhibits activation of SRC downstream of gp130”, the “biosynthesis (COL2 and ACAN transcription), qPCR” value [9] was “promotes biosynthesis” and the “transcription of catabolic enzymes (ADAMTS4/5 and MMP13), qPCR” value [9] was “decreased transcription of catabolic enzymes; also recorded: inhibits transcription of matrix degrading genes”. The “biosynthesis (COL2 and ACAN transcription), qPCR” value ([9]; listed as QQpYF) was “increased”, the “transcription of catabolic enzymes (ADAMTS4/5 and MMP13), qPCR” value ([9]; listed as QQpYF) was “markedly lower” and the “matrix degeneration: levels of cleaved ACAN and COL2 neoepitopes” value [10] was “prevented matrix degeneration in pig cartilage explants; also recorded: sustained prevention of catabolism; also recorded: prevents degeneration in pig cartilage explants; also recorded: dose dependent”. The “matrix degeneration: levels of cleaved ACAN and COL2 neoepitopes” value ([10]; listed as QQpYF) was “decrease of aggrecanase and collagenase activity”, the “complex formation between gp130 and pSRC (gp130-SRC interaction)” value (shortened to “complex formation between gp130 and pSRC”) [11] was “most efficacious at physically hindering gp130-SRC protein-protein interaction” and the “complex formation between gp130 and pSRC” value ([11]; listed as QQ[pY]F) was “most efficacious at physically hindering gp130-SRC protein-protein interaction”. For the same compound, the “complex formation between gp130 and pSRC” value ([11]; listed as QQpYF) was “prevents physical interaction of gp130 and SRC”.
